Measurements from patent publication US5494932A, “Sulfonic stilbene derivatives in the treatment of viral disease” (Merrell Dow Pharmaceuticals Inc., priority 1991, dated 1996).
Where two headings read alike, the source gives them in different places.

What was measured:
[1] = tested on: virus-induced cell fusion (gp120-CD4 dependent); experiment: Cell fusion after pretreatment of uninfected C8166 cells, washing and mixing with chronically infected H9 cells; type: cell-based, HIV-1; human H9 and C8166 cells; conditions: cells pretreated and washed before mixing with H9 cells
Description: In the next experiments, CD4+ C8166 cells were pretreated overnight with either DIDS (100 μg/ml), SITS (100 μg/ml) or drug-free medium. Unabsorbed compounds were removed by repeated washings and chronically infected H9 cells were then added. […] Thus, cell washing prior to mixing with the H9 cells oblated the protective effect observed above (FIG. 1, Panel E) when 500,000 MW dextran sulfate was continually present in the assay.
Pretreatment of CD4+ C8166 cells with DIDS blocks fusion with chronically infected H9 cells. In this experiment, C8166 cells were pretreated overight with various stilbene disulfonic acids or drug-free medium (fusion control). The cells were washed, incubated with chronically infected H9 cells and syncytia were photographed at 6 hours post-mixing. Pretreatment conditions were as follows: […]: 100 μg/ml SITS; FIG. 2B: drug-free medium; and FIG. 2C: 100 μg/ml DIDS.
In pretreatment experiments, CD4^+ C8166 cells were maintained in serum-free medium (RPMI 1640 plus human transferrin 50 μg/ml, bovine insulin 20 μg/ml, bovine serum albumin 2 mg/ml) and were exposed to compound by overnight incubation. Treated cells were washed twice in fresh serum-free medium and then cocultured with chronically infected H9 cells in serum-free medium. Otherwise, cell numbers, assay conditions and scoring of syncytia were as described above.
Protocol: C8166 cells were pretreated for 2.5 hours with either DIDS, SITS or H2 DIDS (at 500 and 250 μg/ml). The cells were then washed three times and mixed with H9 cells chronically infected with HIV-1. Cell fusion was quantified after 4 and 24 hours.

[2] = tested on: virus-induced cell fusion (gp120-CD4 dependent); experiment: Anti-syncytial cocultivation assay: H9 cells chronically infected with HIV-1 RF mixed with uninfected C8166 cells; type: cell-based, HIV-1 RF; human H9 and C8166 cells; conditions: for blocking virus-induced cell fusion and death: summary statement
Source text: Syncytial cell formation depends on the interaction of gp120, expressed in the membranes of infected cells, with the CD4 antigen on neighboring cells (Camerini and Seed, 1990). We utilized a cell cocultivation model to examine the effect of the stilbene disulfonic acids on the gp120-CD4 dependent fusion process. This system consists of mixing H9 cells chronically infected with HIV-1 RF (gp120^+ cells) with uninfected C8166 cells (CD4^+ cells) as the fusion indicator. In this assay, cell fusion occurred within 2 to 3 hours of mixing at 37° C. and substantial syncytia were observed after a further 3 to 4 hours (FIG. 1, Panel A). […] These findings with the sulfated polysaccharides were consistent with a previous report (Montefiori et al., 1990).
The effect of the stilbene disulfonic acids and various sulfated polysaccharides on virus-induced cell fusion. In this assay, 10^5 H9 cells, chronically infected with the HIV-1 strain RF, were cocultured with 10^5 uninfected C8166 cells in the absence and presence of the test compounds. FIG. 1A: Positive control, no compound addition; FIG. 1B: 100 μg/ml DIDS; FIG. 1C: 100 μg/ml SITS; FIG. 1D: positive control; FIG. 1E: 10 μg/ml 500,000 MW dextran sulfate; FIG. 1F: 250 μg/ml heparin.
CD4^+ uninfected C8166 cells were seeded into 24-well trays ([…]) that contained growth medium and various concentrations of test compounds. H9 cells, chronically infected with the RF strain of HIV-1, were washed and then added as a source of gp120^+ cells at 10^5 cells/well except for the noncytopathic control: those wells received uninfected H9 cells. The trays were then incubated at 37° C. and the cocultures were observed between 1 and 6 hours p.i. Syncytia were recorded on photographic film.
Protocol: H9 cells chronically infected with RF strain of HIV-1 and uninfected C8166 cells were mixed in the presence of either DIDS, SITS, H2 DIDS, dextran sulfate, or heparin (100 μg/ml). The cells were observed after 2, 31/2 and 51/2 hours and the amount of cell fusion quantified.
Protocol: H9 cells chronically inected with HIV-1 and uninfected C8166 cells were mixed in the presence of either DIDS, SITS, H2 DIDS, dextran sulfate, heparin (at 100 μg/ml), OKT4 or OKT4A (at a 1/50 dilution). The cells were observed after 4 hours and the amount of cell fusion quantitied. OKT4 and OKT4A are monoclonal antibodies that bined the CD4 cell surface antigen.

[3] = tested on: HIV-1; conditions: cited from earlier work
[4] = tested on: HSV 2; experiment: Plaque reduction assay, HSV 2; type: cell-based
Description: (§1) Protocol: Plaque reduction assay. Treatment after adsorption during incubation.

[5] = tested on: HCMV; experiment: Plaque reduction assay, HCMV; type: cell-based
Description: as §1

[6] = tested on: HIV-1 infected JM cells; experiment: Treatment of HIV-1 infected JM cells with DIDS, SITS and ddC; type: cell-based, HIV-1 (human T cell line JM); conditions: 5 μM
Description: Protocol: JM cells were infected with HIV to give approximately 100 syncytia after 3 days. Virus adsorption was at room temperature for 2 hours. The cells were then washed thoroughly and distributed in wells of a tissue culture plate at a concentration of 1×10^5 cells/well. At 24 hours post infection either DIDS (100 μg/ml), SITS (100 μg/ml), or ddC (5 μM) were added to wells having infected cells. As virus controls, some wells had no drug added. At 42 hours post infection other wells received either ddC (5 μM), SITS (100 μg/ml), or DIDS (100, 50, 25, 12.5, 6.25 μg/ml). Syncytia were scored at 3 and 4 days post-infection and the supernatant fluids were harvested after 3 and 4 days for p24 core antigen determination.

Heparin [reference compound]
protective effect after pretreatment [1]: no protective effect | cell fusion relative to nontreated virus control ([2]; 250 μg/ml, Panel F): totally ineffective | blocking virus-induced cell fusion and death [2]: ineffective at blocking virus-induced cell fusion and death | inhibition of HIV-1 replication in vitro [3]: highly effective inhibitors

Dextran Sulfate [reference compound]
Syncytia after 3 1/2 hrs ([2]; 100 μg/ml, virus control +++): 0 | Syncytia after 5 1/2 hrs ([2]; 100 μg/ml, virus control +++): 0 | inhibition of HIV-1 replication in vitro [3]: highly effective inhibitors

Nc1nc2c(ncn2COCCO)c(=O)[nH]1 [Acyclovir, reference compound]
Plaque counts ([4]; 0.1 μg/ml, first count): 44 | activity at 0.1 µg/mL ([4]; 0.1 μg/ml, read-out: Mean % VC (plaques)): 70% | Plaque counts ([4]; 0.1 μg/ml, second count): 34 | Plaque counts ([4]; 1 μg/ml, first count): 31 | activity at 1 µg/mL ([4]; 1 μg/ml, read-out: Mean % VC (plaques)): 54% | Plaque counts ([4]; 1 μg/ml, second count): 31 | Plaque counts ([4]; 1 μg/ml, third count): 29 | Plaque counts ([4]; 10 μg/ml, first count): 0 | activity at 10 µg/mL ([4]; 10 μg/ml, read-out: Mean % VC (plaques)): 0% | Plaque counts ([4]; 10 μg/ml, second count): 1 | Plaque counts ([4]; 10 μg/ml, third count): 0 | Plaque counts ([4]; 100 μg/ml, first count): 0 | activity at 100 µg/mL ([4]; 100 μg/ml, read-out: Mean % VC (plaques)): 0% | Plaque counts ([4]; 100 μg/ml, second count): 0 | Plaque counts ([4]; 100 μg/ml, third count): 0

Nc1nc(O)c2ncn(COC(CO)CO)c2n1 [Gancyclovir, reference compound]
Plaque counts ([5]; 0.1 μg/ml, first count): 34 | Plaque counts ([5]; 0.1 μg/ml, second count): 39 | Plaque counts ([5]; 1 μg/ml, first count): 6 | Plaque counts ([5]; 1 μg/ml, second count): 13 | Plaque counts ([5]; 1 μg/ml, third count): 1 | Plaque counts ([5]; 10 μg/ml, first count): 3 | Plaque counts ([5]; 10 μg/ml, second count): 2 | Plaque counts ([5]; 10 μg/ml, third count): 7 | Plaque counts ([5]; 1000 μg/ml, first count): 0 | Plaque counts ([5]; 1000 μg/ml, second count): 0 | Plaque counts ([5]; 1000 μg/ml, third count): 0 | activity at 0.1 µg/mL ([5]; Human betaherpesvirus 5, 0.1 μg/ml, read-out: Mean % VC (plaques)): > 100% | activity at 1 µg/mL ([5]; Human betaherpesvirus 5, 1 μg/ml, read-out: Mean % VC (plaques)): 22% | activity at 10 µg/mL ([5]; Human betaherpesvirus 5, 10 μg/ml, read-out: Mean % VC (plaques)): 10% | activity at 1000 µg/mL ([5]; Human betaherpesvirus 5, 1000 μg/ml, read-out: Mean % VC (plaques)): 0%

pentosan polysulfate
inhibition of HIV-1 replication in vitro [3]: highly effective inhibitors

Nc1ccn([C@H]2CC[C@@H](CO)O2)c(=O)n1 [ddC, reference compound]
Mean syncytia/well 3 days p.i. ([6]; added 24 hr): 65 | Mean syncytia/well 4 days p.i. ([6]; added 24 hr): 51 | p24 antigen 3 days p.i. ([6]; added 24 hr): 9000 pg/mL | p24 antigen 4 days p.i. ([6]; added 24 hr): 3100 pg/mL | Mean syncytia/well 3 days p.i. ([6]; added 42 hr): As VC | Mean syncytia/well 4 days p.i. ([6]; added 42 hr): As VC | p24 antigen 3 days p.i. ([6]; added 42 hr): 17000 pg/mL | p24 antigen 4 days p.i. ([6]; added 42 hr): 67000 pg/mL | activity at 5 µM ([6]; Human immunodeficiency virus 1, 72 h, added 24 hr, read-out: p24 antigen 3 days p.i., % control): 19% | activity at 5 µM ([6]; Human immunodeficiency virus 1, 72 h, added 42 hr, read-out: p24 antigen 3 days p.i., % control): 36% | activity at 5 µM ([6]; Human immunodeficiency virus 1, 96 h, added 24 hr, read-out: p24 antigen 4 days p.i., % control): 3.5% | activity at 5 µM ([6]; Human immunodeficiency virus 1, 96 h, added 42 hr, read-out: p24 antigen 4 days p.i., % control): 75%

Dextran sulfate (8,000) [reference compound]
cell fusion / syncytia ([2]; 100 μg/ml, at the time of cell mixing): totally ineffective | blocking virus-induced cell fusion and death [2]: ineffective at blocking virus-induced cell fusion and death
